Literature values as cited in patent EP1001773B1, “ORAL SOLID PHARMACEUTICAL COMPOSITIONS CONTAINING NICORANDIL FOR A MODULATED RELEASE AND THE PROCESS FOR THEIR PREPARATION” (Biomedica Foscama Industria Chimico-Farmaceutica S.p.A., priority 1997, dated 1999).

Details: orally administered, conventional tablets; Am.J.Cardiol. 1989, 63, 25J-33J

- Tmax.: 30 min
Compound: O=C(NCCO[N+](=O)[O-])c1cccnc1 [Nicorandil, N-(2-hydroxyethyl) nicotinamide nitric ester]
